Results published in paper PMC9865085, “Expression and Characterisation of the First Snail-Derived UDP-Gal: Glycoprotein-N-acetylgalactosamine β-1,3-Galactosyltransferase (T-Synthase) from Biomphalaria glabrata” (Molecules, 2023).

Assays:
[1] = molecular target: T1, T-synthase (UDP-Gal: glycoprotein-N-acetylgalactosamine β-1,3-galactosyltransferase) from Biomphalaria glabrata (Biomphalaria glabrata, UniProt A0A2C9JXL4); experiment: galactosyl transfer to pNP-α-GalNAc, HPLC; type: biochemical; conditions: 5 nmol added to 20 μL assay; 200 μM UDP-Gal, 1 mM pNP-α-GalNAc, 20 mM MnCl2, 2 mM ATP, 50 mM MES pH 6.5, 37 °C, 2 h; bead-bound enzyme or lysate not stated for this test
T1 construct: full-length 388 aa type II transmembrane protein, C-terminal His-tag, codon-optimised synthetic gene, expressed in Sf9 cells; lysate or captured on anti-His magnetic beads
T1 sequence (A0A2C9JXL4 1-388): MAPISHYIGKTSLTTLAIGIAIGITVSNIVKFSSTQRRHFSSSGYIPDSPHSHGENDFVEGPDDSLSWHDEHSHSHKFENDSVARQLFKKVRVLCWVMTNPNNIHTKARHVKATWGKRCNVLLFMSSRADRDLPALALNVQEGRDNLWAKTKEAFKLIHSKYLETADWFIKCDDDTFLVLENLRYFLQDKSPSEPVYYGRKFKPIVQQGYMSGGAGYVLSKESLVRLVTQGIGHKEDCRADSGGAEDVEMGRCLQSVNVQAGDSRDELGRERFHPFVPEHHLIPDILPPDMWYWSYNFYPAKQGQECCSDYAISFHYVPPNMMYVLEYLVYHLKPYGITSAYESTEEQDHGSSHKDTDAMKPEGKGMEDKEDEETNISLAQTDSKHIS

[2] = molecular target: T1, T-synthase (UDP-Gal: glycoprotein-N-acetylgalactosamine β-1,3-galactosyltransferase) from Biomphalaria glabrata; experiment: galactosyl transfer, HPLC; product linkage by NMR; type: cell-based; conditions: acceptor, 1 mM; 200 μM UDP-Gal, 20 mM MnCl2, 2 mM ATP, 50 mM MES pH 6.5, 37 °C, 2 h; Sf9 lysate, control lysate inactive

Structure (SMILES)	% inhibition at 5 nmol [1]	galactosyl transfer, HPLC; product linkage by NMR [2]
O=c1ccn([C@@H]2O[C@H](COP(=O)(O)O)[C@@H](O)[C@H]2O)c(=O)[nH]1 [UMP]	~ 50%	
O=c1ccn([C@@H]2O[C@H](COP(=O)(O)OP(=O)(O)OP(=O)(O)O)[C@@H](O)[C@H]2O)c(=O)[nH]1 [UTP]	~ 50%	
CC(=O)N[C@H]1[C@@H](Oc2ccc([N+](=O)[O-])cc2)O[C@H](CO)[C@H](O)[C@@H]1O [pNP-α-GalNAc]		the identity of the product pNP-α-GalNAc-β-1,3-Gal was clearly confirmed
